These results are taken from US10301302B2, “Crystalline forms of N-(2-chloro-6-methy]phenvn-2-[F6-[4-(2-hvdroxvethvl)-L-piperazin-vil-2-methvil-4-pvrimidinvllaminol-5-thiazolecarboxamide and their process thereof” (MSN LABORATORIES PRIVATE LIMITED, priority 2015, dated 2019).

The structures appear in SMILES notation.

The conditions of series [1]: cited from earlier work.
A short description of series [2]: Solubility of the 1,2-propanediol solvate (stated advantage, no method given). Format: physicochemical. Conditions: advantageous property found by the inventors; no solvent or value given.

For `Cc1nc(Nc2ncc(C(=O)Nc3c(C)cccc3Cl)s2)cc(N2CCN(CCO)CC2)n1` [Dasatinib, N-(2-chloro-6-methylphenyl)-2-[[6-[4-(2-hydroxyethyl)-1-piperazinyl]-2-methyl-4-pyrimidinyl]amino]-5-thiazole carboxamide], the “solubility in alcoholic solvents” value in series [1] (alcoholic solvents like ethanol and methanol) is “slightly soluble”. Moreover, the solubility in water entry in series [1] (water) is listed as “insoluble”.

On to `Cc1nc(Nc2ncc(C(=O)Nc3c(C)cccc3Cl)s2)cc(N2CCN(CCO)CC2)n1` [1,2-propanediol solvate, 1,2-Propanediol solvate of N-(2-chloro-6-methylphenyl)-2-[[6-[4-(2-hydroxyethyl)-1-piperazinyl]-2-methyl-4-pyrimidinyl]amino]-5-thiazolecarboxamide], for which the solubility result in series [2] was “good solubility”.
